Source: article PMC5908784, “Extracellular loops 2 and 3 of the calcitonin receptor selectively modify agonist binding and efficacy” (Biochemical Pharmacology, 2018)
Positions count from the first letter of the chain named. Where a SMILES comes first, the peptide text is derived from it. Bridges are numbered along the chain shown (N, C = ends).

Columns and labels:
Test in all cases: IP1 accumulation
Assay type in all cases: cell-based
Settings in all cases: mean ± S.E.M.; for Emax: IP1 maximal response, SEM
hCTR T295A = target: T1, hCTR T295A (Homo sapiens, UniProt P30988, T295A)
T1 construct: c-Myc (N); expressed in transfected cells
T1 sequence (P30988 25-474 T295A): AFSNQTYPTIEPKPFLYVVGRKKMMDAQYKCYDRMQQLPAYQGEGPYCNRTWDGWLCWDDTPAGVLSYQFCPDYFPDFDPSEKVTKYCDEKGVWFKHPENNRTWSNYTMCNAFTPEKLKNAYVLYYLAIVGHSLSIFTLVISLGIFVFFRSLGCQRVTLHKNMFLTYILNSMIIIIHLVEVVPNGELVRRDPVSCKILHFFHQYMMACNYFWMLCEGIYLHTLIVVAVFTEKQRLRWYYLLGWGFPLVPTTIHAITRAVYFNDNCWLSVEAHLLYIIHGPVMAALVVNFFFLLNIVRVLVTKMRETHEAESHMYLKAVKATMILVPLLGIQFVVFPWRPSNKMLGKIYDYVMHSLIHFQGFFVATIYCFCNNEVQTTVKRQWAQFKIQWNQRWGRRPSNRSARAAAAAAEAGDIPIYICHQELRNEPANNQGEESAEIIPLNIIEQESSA
Protocol: (§1) Cells (2.5 × 10^4 cells/well) were plated into 96 well trays and cultured overnight. Cells were stimulated with increasing concentration of ligands for 60 min in the presence of LiCl. Samples were lysed and endogenous IP1 was measured using an IP-One HTRF® assay kit (CisBio) as specified by the manufacturer. Data were normalized to the maximal response elicited by 100 μM of ATP.
(§2) Data were corrected for radioligand occupancy using the Cheng-Prusoff equation in Prism; as such data are reported as pKi. Emax and EC50 were estimated from concentration-response curves using with a 3-parameter logistic equation in Prism (v7). These values are a composite of functional affinity, efficacy and stimulus response coupling. […] Significance was accepted at P < 0.05.

hCTR F285A = target: T2, hCTR F285A (Homo sapiens, UniProt P30988, F285A)
T2 construct: expressed in transfected cells
T2 sequence (P30988 25-474 F285A): T1 sequence (P30988 25-474 T295A) with F261A, A271T
Protocol: as §1, §2

hCTR G369A = target: T3, hCTR G369A (Homo sapiens, UniProt P30988, G369A)
T3 construct: c-Myc (N); expressed in transfected cells
T3 sequence (P30988 25-474 G369A): T1 sequence (P30988 25-474 T295A) with A271T, G345A
Protocol: as §1, §2

hCTR S292A = target: T4, hCTR S292A (Homo sapiens, UniProt P30988, S292A)
T4 construct: expressed in transfected cells
T4 sequence (P30988 25-474 S292A): T1 sequence (P30988 25-474 T295A) with S268A, A271T
Protocol: as §1, §2

hCTR Y284A = target: T5, hCTR Y284A (Homo sapiens, UniProt P30988, Y284A)
T5 construct: expressed in transfected cells
T5 sequence (P30988 25-474 Y284A): T1 sequence (P30988 25-474 T295A) with Y260A, A271T
Protocol: as §1, §2

[1] = IP1, CV1-FlpIn cells, 60 min, LiCl

Row | EC50 (hCTR T295A; [1]) [nM] | EC50 (hCTR F285A; [1]) [nM] | EC50 (hCTR G369A; [1]) [nM] | EC50 (hCTR S292A; [1]) [nM] | EC50 (hCTR Y284A; [1]) [nM] | SMILES | Emax (hCTR T295A) [%] | Emax (hCTR F285A) [%] | Emax (hCTR G369A) [%] | Emax (hCTR S292A) [%] | Emax (hCTR Y284A) [%]
1 |  |  |  |  |  | CC[C@H](C)[C@H](NC(=O)[C@H](C)NC(=O)[C@@H](NC(=O)[C@H](CCC(N)=O)NC(=O)[C@@H]1CCCN1C(=O)[C@H](Cc1ccccc1)NC(=O)[C@@H](NC(=O)[C@H](Cc1c[nH]cn1)NC(=O)[C@H](Cc1ccccc1)NC(=O)[C@H](CCCCN)NC(=O)[C@H](CC(N)=O)NC(=O)[C@H](Cc1ccccc1)NC(=O)[C@H](CC(=O)O)NC(=O)[C@H](CCC(N)=O)NC(=O)[C@@H](NC(=O)[C@H](Cc1ccc(O)cc1)NC(=O)[C@@H](NC(=O)CNC(=O)[C@H](CC(C)C)NC(=O)[C@H](CCSC)NC(=O)[C@@H]1CSSC[C@H](N)C(=O)NCC(=O)N[C@@H](CC(N)=O)C(=O)N[C@@H](CC(C)C)C(=O)N[C@@H](CO)C(=O)N[C@@H]([C@@H](C)O)C(=O)N1)[C@@H](C)O)[C@@H](C)O)[C@@H](C)O)[C@@H](C)O)C(=O)NCC(=O)N[C@H](C(=O)NCC(=O)N[C@@H](C)C(=O)N1CCC[C@H]1C(N)=O)C(C)C [hCT] | 43 ± 4 | 58 ± 6 | 148 ± 10 | 70 ± 6 | 81 ± 12
2 | 4.57 | 5.01 | 7.59 | 4.27 | 1.15 | CSCC[C@H](NC(=O)CNC(=O)[C@H](CO)NC(=O)[C@H](Cc1ccccc1)NC(=O)[C@H](CCCNC(=N)N)NC(=O)[C@H](Cc1c[nH]cn1)NC(=O)[C@H](Cc1ccccc1)NC(=O)[C@H](CC(N)=O)NC(=O)[C@H](CC(N)=O)NC(=O)[C@H](CC(C)C)NC(=O)[C@H](CC(N)=O)NC(=O)[C@H](CCCNC(=N)N)NC(=O)[C@H](Cc1c[nH]c2ccccc12)NC(=O)[C@H](Cc1ccc(O)cc1)NC(=O)[C@H](C)NC(=O)[C@H](CO)NC(=O)[C@H](CC(C)C)NC(=O)[C@@H](NC(=O)[C@@H]1CSSC[C@H](N)C(=O)N[C@@H](CO)C(=O)N[C@@H](CC(N)=O)C(=O)N[C@@H](CC(C)C)C(=O)N[C@@H](CO)C(=O)N[C@@H]([C@@H](C)O)C(=O)N1)C(C)C)C(=O)NCC(=O)N[C@@H](Cc1ccccc1)C(=O)NCC(=O)N1CCC[C@H]1C(=O)N[C@@H](CCC(=O)O)C(=O)N[C@H](C(=O)N1CCC[C@H]1C(N)=O)[C@@H](C)O [pCT] (H-CSNLSTCVLSAYWRNLNNFHRFSGMGFGPETP-NH2; disulfide 1-7) | 56 ± 7 | 112 ± 13 | 110 ± 6 | 92 ± 7 | 94 ± 6
3 |  |  |  |  |  | CC(C)C[C@H](NC(=O)[C@H](CCCCN)NC(=O)CNC(=O)[C@H](CC(C)C)NC(=O)[C@@H](NC(=O)[C@@H]1CSSC[C@H](N)C(=O)N[C@@H](CO)C(=O)N[C@@H](CC(N)=O)C(=O)N[C@@H](CC(C)C)C(=O)N[C@@H](CO)C(=O)N[C@@H]([C@@H](C)O)C(=O)N1)C(C)C)C(=O)N[C@@H](CO)C(=O)N[C@@H](CCC(N)=O)C(=O)N[C@@H](CCC(=O)O)C(=O)N[C@@H](CC(C)C)C(=O)N[C@@H](Cc1c[nH]cn1)C(=O)N[C@@H](CCCCN)C(=O)N[C@@H](CC(C)C)C(=O)N[C@@H](CCC(N)=O)C(=O)N[C@H](C(=O)N[C@@H](Cc1ccc(O)cc1)C(=O)N1CCC[C@H]1C(=O)N[C@@H](CCCNC(=N)N)C(=O)N[C@H](C(=O)N[C@@H](CC(N)=O)C(=O)N[C@H](C(=O)NCC(=O)N[C@@H](CO)C(=O)NCC(=O)N[C@H](C(=O)N1CCC[C@H]1C(N)=O)[C@@H](C)O)[C@@H](C)O)[C@@H](C)O)[C@@H](C)O [sCT] | 53 ± 7 | 114 ± 6 | 97 ± 7 | 91 ± 6 | 118 ± 7
